Tests used:
BACE1 = molecular target: T1, BACE1 (Homo sapiens, UniProt P56817); assay: Cellular Aβ-lowering assay (Abeta 40 AlphaLISA, HEK293 APP cells); type: cell-based; settings: 18-20 hrs incubation, Aβ40 in culture supernatant, read-out: BACE1 cell act. Aβ40 IC50
T1 construct: endogenous in cells; host or cells: HEK293 APP cells
In short: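 APP-expressing HEK293 cells exposed to compounds for 18-20 h at 37° C. (1% DMSO final). Secreted Aβ1-40 in supernatant measured by AlphaLISA (615 nm emission), expressed as percent of DMSO-only signal, and IC50 fitted.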

[1] = tested on: Aβ40 in brain of wild-type mice; assay: Lowering of Aβ40 in brain of wild-type mice; type: in vivo; settings: Mus musculus, po; female C57Bl/6J mice, 30 mg/kg per os, 4 h; brain Aβ40 related to the value in the vehicle group; read-out: Aβ40 (wt mice, brain)
Description: Lowering of Aβ40 in Brain of Wild-Type Mice:
Animals and Housing Conditions.
Animals were maintained in a 12/12 h light/dark cycle, with lights starting at 6 a.m., and experiments were conducted during the light phase. Animal housing and experimental procedures were in line with ethical and legal guidelines and were authorized by local veterinary authorities.
Experiment. Female C57Bl/6J mice were treated with a dose of 30 mg/kg of the compounds, 3-4 animals per treatment group. The test compound was dissolved in 5% EtOH, 10% Solutol, and was applied per os at 10 mL/kg. After 4 h, the animals were sacrificed and brain and plasma were collected. The brain was cut into halves and immediately frozen on dry ice. Brain was used for measurement of Aβ40 and plasma was used for determination of compound exposure. […] Brain tissue was homogenized in 2% DEA buffer in a Roche MagnaLyser (20″, 4000 rpm) and subsequently centrifuged for 1 h at 100000 g. DEA was reduced to 0.2% in 50 mM NaCl and one-half of the DEA lysate was passed over an Oasis Solid phase extraction plate (Waters; cat. no. 186000679), which had been activated with MeOH and equilibrated in dH2O (1 mL each). After washes in 10% and 30% MeOH (1 mL each), the Aβ-peptides were eluted in 0.8 mL of 2% NH4OH in 90% MeOH. The eluate was dried over a N2 flow, and the dried sample was reconstituted in 30 μL of AlphaLISA assay buffer. Aβ40 was determined by an AlphaLISA assay (Perkin-Elmer). In a white 96-well, half area microplate (Perkin-Elmer cat. no. 6005561), 20 μL of the reconstituted sample were mixed with 5 μL of biotinylated BAP-24 (specific for C-terminus of Aβ40) (Brockhaus, M.; Grunberg, J.; Rohrig, S.; Loetscher, H.; Wittenburg, N.; Baumeister, R.; Jacobsen, H.; Haass, C. Caspasemediated cleavage is not required for the activity of presenilins in amyloidogenesis and NOTCH signaling. NeuroReport 1998, 9, 1481-1486.) stock=4.4 mg/mL, f.c.5.5 μg/mL), and 5 μL 252Q6 acceptor beads (252Q6 antibody, Invitrogen AMB0062) had been previously conjugated with AlphaLISA Acceptor beads (Perkin-Elmer cat. no. 6772002); final dilution 1:500). The mix was incubated for 1 h at RT in the dark. Then 20 μL of Streptavin-coated Donor Beads (Perkin-Elmer cat. no. 6760002, final dilution 1:125) were added and this final mix was incubated in the dark for another 30 min at RT before RFU was measured in an AlphaScreen Reader (Perkin-Elmer Envision 2104). The value obtained for Aβ40 in the treated animals was related to the value in the vehicle group and is given in %. Alternatively a commercial ELISA was used for Aβ40 determination (Wako ELISA: (“Human/Rat β Amyloid (40) ELISA kit Wako II”; cat nr. 294-64701) following the manufacture's instruction. Also here the Aβ-lowering efficacy was calculated as percentage of the vehicle group.

T1 sequence (P56817 46-501): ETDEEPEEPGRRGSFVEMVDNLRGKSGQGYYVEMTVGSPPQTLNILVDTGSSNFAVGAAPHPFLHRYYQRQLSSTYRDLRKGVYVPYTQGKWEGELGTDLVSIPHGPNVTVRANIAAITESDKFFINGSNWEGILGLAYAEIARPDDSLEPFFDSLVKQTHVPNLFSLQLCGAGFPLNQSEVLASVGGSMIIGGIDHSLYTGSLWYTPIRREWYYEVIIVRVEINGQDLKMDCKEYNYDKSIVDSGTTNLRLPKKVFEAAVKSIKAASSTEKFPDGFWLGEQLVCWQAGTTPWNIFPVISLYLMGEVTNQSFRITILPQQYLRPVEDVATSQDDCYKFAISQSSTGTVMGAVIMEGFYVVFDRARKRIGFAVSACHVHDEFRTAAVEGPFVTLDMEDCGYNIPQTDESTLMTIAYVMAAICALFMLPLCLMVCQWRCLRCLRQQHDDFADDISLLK

| Compound | IC50 (BACE1) [µM] | response vs control in vivo at 30 mg/kg [1] [%] |
| --- | --- | --- |
| CC1(C)C(N)=N[C@](C)(c2nc(NC(=O)c3ccc(OCC(F)(F)C(F)F)cn3)ccc2F)[C@@H]2CCN=[S@@]21=O [Example 15AB, N-(6-((3aS,4R,8R)-6-amino-4,7,7-trimethyl-8-oxido-3,3a,4,7-tetrahydro-2H-isothiazolo[1,5-a][1,4]thiazin-4-yl)-5-fluoropyridin-2-yl)-5-(2,2,3,3-tetrafluoropropoxy)picolinamide] | 0.146 | 100 |
| COc1cnc(C(=O)Nc2ccc(F)c([C@@]3(C)N=C(N)C(C)(C)[S@@]4(=O)=NCCC[C@H]34)n2)cn1 [Example 2AA, N-(6-((4aR,5R,9R)-7-amino-5,8,8-trimethyl-9-oxido-2,3,4,4a,5,8-hexahydro-[1,4]thiazino[2,1-f][1,2]thiazin-5-yl)-5-fluoropyridin-2-yl)-5-methoxypyrazine-2-carboxamide] | 0.0197 | 83 |
| CC1(C)C(N)=N[C@](C)(c2nc(NC(=O)c3ncc(OC(F)F)cc3Cl)ccc2F)[C@H]2CC3(CC3)CN=[S@@]21=O [Example 50AA, N-(6-((4aR,5R,9R)-7-amino-5,8,8-trimethyl-9-oxido-4,4a,5,8-tetrahydro-2H-spiro[[1,4]thiazino[2,1-f][1,2]thiazine-3,1′-cyclopropan]-5-yl)-5-fluoropyridin-2-yl)-3-chloro-5-(difluoromethoxy)picolinamide] | 0.0159 | 117 |
| Cc1cc(C#N)cnc1C(=O)Nc1ccc(F)c([C@@]2(C)N=C(N)C(C)(C)[S@@]3(=O)=NCCC[C@@H]23)n1 [Example 1AB, N-(6-((4aS,5R,9R)-7-amino-5,8,8-trimethyl-9-oxido-2,3,4,4a,5,8-hexahydro-[1,4]thiazino[2,1-f][1,2]thiazin-5-yl)-5-fluoropyridin-2-yl)-5-cyano-3-methylpicolinamide] | 0.0023 | 79 |
| CC1(C)C(N)=N[C@](C)(c2nc(NC(=O)c3ccc(OC(F)F)cn3)ccc2F)[C@H]2CC(F)(F)CN=[S@@]21=O [Example 35AA, N-(6-((4aR,5R,9R)-7-amino-3,3-difluoro-5,8,8-trimethyl-9-oxido-2,3,4,4a,5,8-hexahydro-[1,4]thiazino[2,1-f][1,2]thiazin-5-yl)-5-fluoropyridin-2-yl)-5-(difluoromethoxy)picolinamide] | 0.0874 | 101 |
| Cc1c(C(=O)Nc2ccc(F)c([C@@]3(C)N=C(N)C(C)(C)[S@@]4(=O)=NCCC[C@H]34)n2)nc2ccc(Cl)cn12 [Example 6AA, N-(6-((4aR,5R,9R)-7-amino-5,8,8-trimethyl-9-oxido-2,3,4,4a,5,8-hexahydro-[1,4]thiazino[2,1-f][1,2]thiazin-5-yl)-5-fluoropyridin-2-yl)-6-chloro-3-methylimidazo[1,2-a]pyridine-2-carboxamide] | 0.0285 | 103 |
| CC1(C)C(N)=N[C@](C)(c2nc(NC(=O)c3ncc(C#N)cc3Cl)ccc2F)[C@H]2CC(F)(F)CN=[S@@]21=O [Example 37AA, N-(6-((4aR,5R,9R)-7-amino-3,3-difluoro-5,8,8-trimethyl-9-oxido-2,3,4,4a,5,8-hexahydro-[1,4]thiazino[2,1-f][1,2]thiazin-5-yl)-5-fluoropyridin-2-yl)-3-chloro-5-cyanopicolinamide] | 0.0016 | 73 |
| CC1(C)C(N)=N[C@](C)(c2nc(NC(=O)c3ncc(Cl)cc3Cl)ccc2F)[C@H]2CCCN=[S@@]21=O [Example 3AA, N-(6-((4aR,5R,9R)-7-amino-5,8,8-trimethyl-9-oxido-2,3,4,4a,5,8-hexahydro-[1,4]thiazino[2,1-f][1,2]thiazin-5-yl)-5-fluoropyridin-2-yl)-3,5-dichloropicolinamide] | 0.0013 | 76 |
| Cc1cc(C#N)cnc1C(=O)Nc1ccc(F)c([C@@]2(C)N=C(N)C(C)(C)[S@@]3(=O)=NCC[C@@H]23)n1 [Example 9AB, N-(6-((3aS,4R,8R)-6-amino-4,7,7-trimethyl-8-oxido-3,3a,4,7-tetrahydro-2H-isothiazolo[1,5-a][1,4]thiazin-4-yl)-5-fluoropyridin-2-yl)-5-cyano-3-methylpicolinamide] | 0.0006 | 40 |
| Cc1cc(Cl)cnc1C(=O)Nc1ccc(F)c([C@@]2(C)N=C(N)C(C)(C)[S@@]3(=O)=NCC(F)(F)C[C@H]23)n1 [Example 42AA, N-(6-((4aR,5R,9R)-7-amino-3,3-difluoro-5,8,8-trimethyl-9-oxido-2,3,4,4a,5,8-hexahydro-[1,4]thiazino[2,1-f][1,2]thiazin-5-yl)-5-fluoropyridin-2-yl)-5-chloro-3-methylpicolinamide] | 0.0194 | 85 |
| Cc1cc(F)cnc1C(=O)Nc1ccc(F)c([C@@]2(C)N=C(N)C(C)(C)[S@@]3(=O)=NCC[C@@H]23)n1 [Example 10AB, N-(6-((3aS,4R,8R)-6-amino-4,7,7-trimethyl-8-oxido-3,3a,4,7-tetrahydro-2H-isothiazolo[1,5-a][1,4]thiazin-4-yl)-5-fluoropyridin-2-yl)-5-fluoro-3-methylpicolinamide] | 0.01 | 71 |
| CC1(C)C(N)=N[C@](C)(c2nc(NC(=O)c3ccc(F)cn3)ccc2F)[C@H]2CC(F)(F)CN=[S@@]21=O [Example 33AA, N-(6-((4aR,5R,9R)-7-amino-3,3-difluoro-5,8,8-trimethyl-9-oxido-2,3,4,4a,5,8-hexahydro-[1,4]thiazino[2,1-f][1,2]thiazin-5-yl)-5-fluoropyridin-2-yl)-5-fluoropicolinamide] | 0.09 | 83 |
| Cc1cc(C#N)cnc1C(=O)Nc1ccc(F)c([C@@]2(C)N=C(N)C(C)(C)[S@]3(=O)=NCC[C@H]23)n1 [Example 9BA, N-(6-((3aR,4R,8S)-6-amino-4,7,7-trimethyl-8-oxido-3,3a,4,7-tetrahydro-2H-isothiazolo[1,5-a][1,4]thiazin-4-yl)-5-fluoropyridin-2-yl)-5-cyano-3-methylpicolinamide] | 0.0149 | 86 |
| CC1(C)C(N)=N[C@](C)(c2nc(NC(=O)c3ncc(C#N)cc3Cl)ccc2F)[C@@H]2CCN=[S@@]21=O [Example 25AB, N-(6-((3aS,4R,8R)-6-amino-4,7,7-trimethyl-8-oxido-3,3a,4,7-tetrahydro-2H-isothiazolo[1,5-a][1,4]thiazin-4-yl)-5-fluoropyridin-2-yl)-3-chloro-5-cyanopicolinamide] | 0.0005 | 56 |
| CC1(C)C(N)=N[C@](C)(c2nc(NC(=O)c3ncc(C#N)cc3Cl)ccc2F)[C@H]2CCN=[S@]21=O [Example 25BA, N-(6-((3aR,4R,8S)-6-amino-4,7,7-trimethyl-8-oxido-3,3a,4,7-tetrahydro-2H-isothiazolo[1,5-a][1,4]thiazin-4-yl)-5-fluoropyridin-2-yl)-3-chloro-5-cyanopicolinamide] | 0.0155 | 117 |
| CC1(C)C(N)=N[C@](C)(c2nc(NC(=O)c3ccc(OC(F)F)cn3)ccc2F)[C@H]2CCCN=[S@@]21=O [Example 7AA, N-(6-((4aR,5R,9R)-7-amino-5,8,8-trimethyl-9-oxido-2,3,4,4a,5,8-hexahydro-[1,4]thiazino[2,1-f][1,2]thiazin-5-yl)-5-fluoropyridin-2-yl)-5-(difluoromethoxy)picolinamide] | 0.0027 | 65 |

From patent US9540397B2, “BACE1 inhibitors” (Hoffmann-La Roche Inc., priority 2014, dated 2017)
